# Assay results published in US20160022632A1, “COMBINATION OF CANAGLIFLOZIN AND PROBENECID FOR THE TREAMENT OF HYPERURICEMIA” (JANSSEN PHARMACEUTICA NV, priority 2013, published 2016).
# Assays:
# [1] = cited from earlier work
# [2] = 24-hour urinary uric acid excretion, open-label fixed-sequence clinical study (NCT01428284); assay type: in vivo, human; settings: for Increase of mean urinary urate excretion compared to baseline: canagliflozin alone; for Urine urate excretion, Mean / Urine urate excretion, Mean Change from Day−1: healthy subjects, 24-hour urine, canagliflozin 300 mg once daily from Day 1
# Excerpt: (§1) A single-center, open-label, fixed-sequence study to assess the effects of multiple-dose probenecid on multiple-dose of canagliflozin, in healthy subjects, was completed as described below (study NCT01428284) on clinicaltrials.gov registry website). The study consisted of 3 phases: (1) a Screening Phase of approximately 19 days (Day −21 to Day −3), (2) an Open-label Treatment Phase of 20 days (Day −2 to Day 18), and (3) a Follow-up phase (7 to 10 days after discharge on Day 18). The total duration of the study was approximately 49 days.
# (§2) Subjects with history of (or current) any of the following medical conditions were excluded: (a) Acute or chronic renal insufficiency (eGFR below 90 mL/min/1.73 m^2); (b) Kidney or bladder stones (nephrolithiasis); (c) Hyperuricosuria (>800 mg/day), or gout; and/or (d) Hyperuricemia (>6.8 mg/dL, 404 μmol/L). Reasons for subject withdrawal from the study could include the following: (a) Lost to follow-up; (b) Withdrawal of consent; (c) Withdrawal of consent for pharmacogenomic research (Part 1); (d) Subject was not in compliance with requirements of the study and prohibitions and restrictions; and/or (e) A subject could be discontinued from study treatment (final assessments were to be obtained) if the investigator believed that for safety reasons (eg, adverse event) it was in the best interest of the subject to stop study treatment.
# (§3) All study drugs were taken between 7:30 and 9:30 a.m. with 240 mL of noncarbonated water. Study drug was swallowed whole and not chewed, divided, dissolved or crushed. […] For each subject, on days when both canagliflozin and probenecid were administered, both doses were administered at approximately the same time.
# (§4) Canagliflozin was administered as a single 300-mg tablet on Days 1 to Day 17. Probenecid was administered b.i.d. as one 500-mg tablet from Day 15 to Day 17. On Day 14 and Day 17, subjects received study drug under fasted conditions, and standardized lunch approximately 4 hours after study drug administration. On all other study days, subjects received canagliflozin and/or probenecid 1 hour before they received a standardized meal. The study diet was standardized by the site dietician in order to minimize the effect on uric acid levels. Subjects were also advised not to consume high purine-enriched foods from screening to completion of the study.
# (§5) All laboratory testing was conducted by a licensed clinical laboratory (Physicians Reference Laboratory [PRL]), 7800 West 110th Street, Overland Park, Kans. 66210-2304). Clinical laboratory tests included, among others:
# (b) Urinary uric acid excretion: A 24-hour total urine was collected at the time points specified in the Time and Events Schedule of the study protocol. The samples were mixed thoroughly and stored between 2° C. and 8° C. until shipment.
# (§6) Laboratory data were summarized by type of laboratory test. Normal reference ranges and abnormal results were used in the summary of laboratory data. Descriptive statistics were calculated for each laboratory analyte at baseline, Day 18, and end-of-study.
# Table 2, below, lists mean urine uric acid excretion and calculated mean changes through the course of the study. FIG. 2 illustrates said mean uric acid excretion (±standard deviation) as a function of study day.
# [3] = Fasting serum urate levels, open-label fixed-sequence clinical study (NCT01428284); assay type: in vivo, human; settings: for Decrease of mean serum urate level from baseline: canagliflozin alone; for Serum urate level, Mean / Serum urate level, Mean Decrease: healthy subjects, canagliflozin 300 mg once daily from Day 1
# Excerpt: as §1, §2, §3, §4, §5
# (a) Serum chemistry: glucose, creatinine, blood urea nitrogen (BUN), total protein, total bilirubin, phosphate, albumin, calcium, fasting serum uric acid, sodium, potassium, chloride, magnesium, lactic acid dehydrogenase, alkaline phosphatase, alanine transaminase, aspartate transaminase, gamma-glutamyltransferase, bicarbonate, creatine phosphokinase, total cholesterol (screening only), and triglycerides (screening only); and
# as §6
# Table 1, below lists mean serum urate levels and calculated mean decrease through the course of the study. […] FIG. 1 illustrates said mean serum urate levels (±standard deviation) as a function of study day.
smiles,measurement,setting,value
Oc1ncnc2[nH]ncc12 [Allopurinol],Patients with side-effects,[1],up to 20%
Cc1ccc([C@@H]2O[C@H](CO)[C@@H](O)[C@H](O)[C@H]2O)cc1Cc1ccc(-c2ccc(F)cc2)s1 [canagliflozin],Increase of mean urinary urate excretion compared to baseline,[2]; Day 1,approximately 19%
same,Increase of mean urinary urate excretion compared to baseline,[2]; Day 2,~6%
same,Increase of mean urinary urate excretion compared to baseline,[2]; Day 13,~1%
same,"Urine urate excretion, Mean",[2]; Day 1,5.068 mmol/day
same,"Urine urate excretion, Mean Change from Day−1",[2]; Day 1,0.796 mmol/day
same,"Urine urate excretion, Mean",[2]; Day 2,4.544 mmol/day
same,"Urine urate excretion, Mean Change from Day−1",[2]; Day 2,0.273 mmol/day
same,"Urine urate excretion, Mean",[2]; Day 13,4.319 mmol/day
same,"Urine urate excretion, Mean Change from Day−1",[2]; Day 13,0.048 mmol/day
same,"Urine urate excretion, Mean",[2]; Day 14,4.208 mmol/day
same,"Urine urate excretion, Mean Change from Day−1",[2]; Day 14,-0.064 mmol/day
same,Decrease of mean serum urate level from baseline,[3]; Day 2,approximately 19%
same,Decrease of mean serum urate level from baseline,[3]; Day 3,~24%
same,Decrease of mean serum urate level from baseline,[3]; Day 14,~23%
same,"Serum urate level, Mean",[3]; Day 1,293.151 µmol/L
same,"Serum urate level, Mean Decrease",[3]; Day 1,-5.523 µmol/L
same,"Serum urate level, Mean",[3]; Day 2,241.580 µmol/L
same,"Serum urate level, Mean Decrease",[3]; Day 2,-57.650 µmol/L
same,"Serum urate level, Mean",[3]; Day 3,228.769 µmol/L
same,"Serum urate level, Mean Decrease",[3]; Day 3,-70.461 µmol/L
same,"Serum urate level, Mean",[3]; Day 14,229.684 µmol/L
same,"Serum urate level, Mean Decrease",[3]; Day 14,-69.546 µmol/L
